Experimental findings from patent US7217723B2, “Heterocyclic compound having oxime group” (Eisai Co., Ltd., priority 2004, dated 2007) are described below.

Structures are written as SMILES.

The term IC50 denotes the point on the concentration scale where inhibition reaches its midpoint.

In one test the test system is STAT6 activation. Nature of the test: STAT6 activation inhibition test (IL-4-induced alkaline phosphatase STAT6 reporter gene assay). The format is cell-based, human. Particulars: Homo sapiens, HEK293; concentration giving 50% suppression of alkaline phosphatase activity induced by IL-4 (1 ng/mL), 16 hours; 293 cells stably expressing STAT6 gene and STAT6 reporter gene. On the procedure: The inhibitory activity on STAT6 activation of the compound according to present invention was evaluated according to the following test.
1) Construction of the STAT6 Reporter Gene
The oligonucleotide of SEQ ID: 1 resuting from three STAT6 binding regions of the human immunoglobulin germline ε gene promoter linked togeter, and the complementary strand thereof were mixed, and after thermal denaturation and annealing, the 5′ and the 3′ ends were respectively cut with the restriction enzymes Kpn I (TaKaRa Shuzo Code No. 1068A) and Xba I (TaKaRa ShuzoCode No. 1093A), and the resulting fragment was cloned into the Kpn I/Xba I site of the pUG-BGH-PLAP vector (described in Molecular Pharmacology, 49: 860–873 1996). In addition, the TK promoter region of the herpesvirus for inducing general transcription factors was cloned into the Xba I/Hind III (TaKaRa ShuzoCode No. 1060A) site of the pUG-BGH-PLAP vector. Then, to collect a stable expression cell strain, the neomycin resistance gene, that is a PGK-neo expression cassette, was incorporated into the Sal I (TaKaRa Shuzo, Code No. 1080A) site of this vector. Cloning of the TK promoter and the PGK-neo expression cassette was carried out according to Molecular Pharmacology, 49: 860–873 1996.
2) Construction of the STAT6 Expression Vector
Using the oligonucleotide of SEQ ID: 2 containing the initiation codon of the STAT6 gene and the oligonucleotide of SEQ ID: 3 containing the stop codon, Total RNA was prepared from human peripheral blood cells with the RNeasy Mini kit (OIAGEN, Code No. 74104). Thereafter, a reverse transcription reaction was carried out with the Takara RNA LA PCR kit (TaKaRa Shuzo, Code No. RR012A) to prepare cDNA, and using the primers of SEQ ID: 2 and 3, a PCR reaction was carried out, to amplify the STAT6 gene.
PCR product was digested with EcoR I (TaKaRa Shuzo, Code No. 1040A) and Xho I (TaKaRa Shuzo, 1094A), thereafter, the digested fragment was isolated on an agarose gel. The isolated fragment was incorporated into the vector fragment derived from the EcoR I/Xho I digestion of the pcDNA3.1 (+) (invtrogen, Code No. U790-20) vector.
3) Transformation and Preparation of a Stable Expression Cell Strain
In a Falcon 6-well plate for tissue culture (Becton Dickinson, Code No. 35-3046), 3.0×10^5 of 293 cells derived from human embryo kidney (American Type Culture Collection) were distributed and cultured overnight. The STAT6 reporter gene (1.5 μg), the STAT6 gene (1.5 μg) that were prepared and lipofectamine (GIBCO BRL, Code No. 18324-012) (20 μL) were mixed in OPTI-MEM culture medium (GIBCO BRL, Code No. 31985-070) (0.3 mL), and allowed to stand at room temperature for 20 minutes. Thereafter, the OPTI-MEM culture medium (1.2 mL) was further added, OPTI-MEM culture medium not containing fetal calf serum was added to washed cells, which were cultured for 2 hours. A culture medium (1.5 mL) containing fetal calf serum was added, and the cells were cultured for 19 more hours. The culture was continued by exchanging the culture medium and adding Geneticin (SIGMA, Code No. G-5013) so as to obtain 1 mg/mL, and cells with drug tolerance were selected. The selected drug tolerant cells were suspended in a culture medium containing 1 mg/mL of Geneticin, and distributed in a 96-well microplate (Becton Dickinson, Code No. 35-3072) so as to obtain 0.5 cells/well to carrry out cloning, and the clones expressing alkaline phosphatase in response to IL-4 were collected.
4) STAT6 Activation Inhibition Test
Cells stably expressing the STAT6 gene and the STAT6 reporter gene, and expressing alkaline phosphatase in response to IL-4 were distributed in a 96-well microplate (Becton Dickinson, Code No. 35-3072) so as to obtain 5000 cells/180 μL/well, and cultured overnight. […]
For orientation: A reporter such as luciferase makes a cellular process visible.
Consider `CN(CCc1cccnc1)S(=O)(=O)c1csc2c1CCC/C2=N/O` [Example 7, (7Z)-7-Hydroxyimino-4,5,6,7-tetrahydro-benzo[b]thiophene-3-sulfonic acid methyl-(2-pyridine-3-yl-ethyl)-amide], for which the concentration for half-maximal inhibition (IC50) worked out at 4.8 nM.

For the compound `CN(CCc1ccncc1)S(=O)(=O)c1csc2c1CCC/C2=N/O` [Example 9, (7Z)-7-Hydroxyimino-4,5,6,7-tetrahydro-benzo[b]thiophene-3-sulfonic acid methyl-(2-pyridine-4-yl-ethyl)-amide], the IC50 was 0.82 nM.

`CN(C[C@@H](O)c1ccc(F)cc1)S(=O)(=O)c1csc2c1CCC/C2=N/O` [Example 13, (7Z)-N-[(2S)-2-(4-Fluorophenyl)-2-hydroxyethyl]-7-(hydroxyimino)-N-methyl-4,5,6,7-tetrahydro-1-benzothiophene-3-sulfonamide] displayed an IC50 of 0.36 nM. This IC50 lies about 2.3-fold lower than the previous one.

Consider `CN(C[C@H](O)c1ccc(F)cc1)S(=O)(=O)c1csc2c1CCC/C2=N/O` [Example 14, (7Z)-N-[(2R)-2-(4-Fluorophenyl)-2-hydroxyethyl]-7-(hydroxyimino)-N-methyl-4,5,6,7-tetrahydro-1-benzothiophene-3-sulfonamide], for which it took 30 nM to reach half-maximal inhibition (IC50).

In turn, `CN(CC(O)c1ccncc1)S(=O)(=O)c1csc2c1CCC/C2=N/O` (stereo not shown) [Example 21, (7Z)-7-Hydroxyimino-4,5,6,7-tetrahydro-benzo[b]thiophene-3-sulfonic acid (2-hydroxy-2-pyridine-4-yl-ethyl)-methyl-amide] had a 50% inhibitory concentration (IC50) of 5.6 nM.

With `CN(CC(O)c1ccc(F)cc1)S(=O)(=O)c1c(N)sc2c1CCC/C2=N/O` (stereo not shown) [Example 26, (7Z)-2-Amino-7-hydroxyimino-4,5,6,7-tetrahydro-benzo[b]-thiophene-3-sulfonic acid [2-(4-fluorophenyl)-2-hydroxyethyl]-methyl-amide], it took 2.6 nM to reach half-maximal inhibition (IC50).

In turn, `CN(CC(O)c1ccc(F)cc1)S(=O)(=O)c1c(N)sc2c1CCC/C2=N\O` (stereo not shown) [Example 27, (7E)-2-Amino-7-hydroxyimino-4,5,6,7-tetrahydro-benzo[b]-thiophene-3-sulfonic acid [2-(4-fluorophenyl)-2-hydroxyethyl]-methyl-amide] came in with an IC50 of 11 nM.

Consider `CC(C)C(=NO)c1cc(S(=O)(=O)N(C)CCc2ccc(F)cc2)cs1` [Example 47, 5-(1-Hydroxyimino-2-methylpropyl)thiophene-3-sulfonic acid [2-(4-fluorophenyl)-ethyl]-methyl-amide], for which the IC50 was found to be 12 nM.

In the case of `CC(C)C(=NO)c1cc(S(=O)(=O)N(C)CC(O)c2ccc(F)cc2)cs1` (stereo not shown) [Example 48, 5-(1-Hydroxyimino-2-methylpropyl)thiophene-3-sulfonic acid [2-(4-fluorophenyl)-2-hydroxyethyl]-methyl-amide], inhibition was half-maximal at 30 nM (IC50). Against the preceding compound, the IC50 is about 2.5-fold higher.

The test is the same for the next values; noted with them: concentration giving 50% suppression of alkaline phosphatase activity induced by IL-4 (1 ng/mL), 16 hours; 293 cells stably expressing STAT6 gene and STAT6 reporter gene.
`CN(CC(O)c1ccc(F)cc1)S(=O)(=O)c1csc2c1CCC/C2=N/O` (stereo not shown) [Example 1, (7Z)-7-Hydroxyimino-4,5,6,7-tetrahydro-benzo[b]thiophene-3-sulfonic acid[2-(4-fluorophenyl)-2-hydroxyethyl]-methyl-amide] yielded a half-inhibitory concentration (IC50) of 1.13 nM.

`CN(CC(O)c1ccc(F)cc1)S(=O)(=O)c1csc2c1CCC/C2=N\O` (stereo not shown) [Example 2, (7E)-7-Hydroxyimino-4,5,6,7-tetrahydro-benzo[b]thiophene-3-sulfonic acid[2-(4-fluorophenyl)-2-hydroxyethyl]-methyl-amide] displayed a half-maximal inhibitory concentration (IC50) of 0.22 nM.

For `CN(CCc1ccc(F)cc1)S(=O)(=O)c1csc2c1CCC/C2=N/O` [Example 3, (7Z)-7-Hydroxyimino-4,5,6,7-tetrahydro-benzo[b]thiophene-3-sulfonic acid[2-(4-fluorophenyl)-ethyl]-methyl-amide], half-maximal inhibition (IC50) was put at 0.6 nM. This IC50 is about 2.7-fold higher than that of the compound before.

In turn, `CN(CCc1ccc(F)cc1[N+](=O)[O-])S(=O)(=O)c1csc2c1CCC/C2=N/O` [Example 5, (7Z)-7-Hydroxyimino-4,5,6,7-tetrahydro-benzo[b]thiophene-3-sulfonic acid[2-(4-fluoro-2-nitro-Phenyl)-ethyl]-methyl-amide] gave a half-inhibitory concentration (IC50) of 21 nM.

The compound `CN(CCc1ccc(F)c([N+](=O)[O-])c1)S(=O)(=O)c1csc2c1CCC/C2=N/O` [Example 6, (7Z)-7-Hydroxyimino-4,5,6,7-tetrahydro-benzo[b]thiophene-3-sulfonic acid[2-(4-fluoro-3-nitro-phenyl)-ethyl]-methyl-amide] registered a half-maximal inhibitory concentration (IC50) of 4.9 nM. This IC50 lies about 4.3-fold lower than the previous one.

`CN(CC(O)c1ccc(F)cc1F)S(=O)(=O)c1csc2c1CCC/C2=N/O` (stereo not shown) [Example 17, (7Z)-7-Hydroxyimino-4,5,6,7-tetrahydro-benzo[b]thiophene-3-sulfonic acid[2-(2,4-difluorophenyl)-2-hydroxyethyl]-methyl-amide]: the half-inhibitory concentration (IC50) came out at 15.4 nM.

`CN(CC(NC(N)=O)c1ccc(F)cc1)S(=O)(=O)c1csc2c1CCCC2=NO` (stereo not shown) [Example 25, 7-Hydroxyimino-4,5,6,7-tetrahydrobenzo[b]thiophene-3-sulfonic acid [(2-(4-fluorophenyl)-2-ureideethyl)]-methyl-amide] returned an IC50 of 13 nM.

Compound `CC1CCc2c(S(=O)(=O)N(C)CCc3ccc(F)cc3)csc2/C1=N\O` (stereo not shown) [Example 31, (7Z)-7-Hydroxyimino-6-methyl-4,5,6,7-tetrahydrobenzo[b]-thiophene-3-sulfonic acid[(2-(4-fluorophenyl)ethyl)]-methyl-amide] showed an IC50 of 4.3 nM.

For the compound `CC1CCc2c(S(=O)(=O)N(C)CC(O)c3ccc(F)cc3)csc2/C1=N\O` (stereo not shown) [Example 32, (7Z)-7-Hydroxyimino-6-methyl-4,5,6,7-tetrahydrobenzo[b]-thiophene-3-sulfonic acid[(2-(4-fluorophenyl)-2-hydroxyethyl)]-methyl-amide], the midpoint of inhibition, the IC50, lay at 10.1 nM.

`CN(CCc1ccc(F)cc1)S(=O)(=O)c1csc2c1CCC(O)/C2=N/O` (stereo not shown) [Example 33, (7Z)-6-Hydroxy-7-hydroxyimino-4,5,6,7-tetrahydrobenzo[b]-thiophene-3-sulfonic acid[(2-(4-fluorophenyl)ethyl)]-methyl-amide] yielded an IC50 of 11 nM.

On to `C/C(=N/O)c1ccc(S(=O)(=O)N(C)CCc2ccc(F)cc2)s1` [Example 37], for which the half-maximal inhibitory concentration (IC50) is 30 nM.

Take `C/C(=N/O)c1cc(S(=O)(=O)N(C)CC(O)c2ccc(F)cc2)cs1` (stereo not shown) [Example 44]: the IC50 was 0.63 nM.

Compound `C/C(=N/O)c1cc(S(=O)(=O)N(C)CC(O)c2ccc(F)cc2)c(N)s1` (stereo not shown) [Example 52, 2-Amino-5-[(1Z)-hydroxyimino-ethyl]-thiophene-3-sulfonic acid [2-(4-fluorophenyl)-2-hydroxyethyl]-methyl-amide] showed an IC50 of 7.9 nM.

Turning to `C/C(=N/O)c1cc(S(=O)(=O)N(C)CCc2ccc(F)cc2)c(N)s1` [Example 60, 2-Amino-5-[(1Z)-hydroxyimino-ethyl]-thiophene-3-sulfonic acid [2-(4-fluorophenyl)-ethyl]-methyl-amide], the IC50 was 1.6 nM.

`C/C(=N\O)c1cc(S(=O)(=O)N(C)CCc2ccc(F)cc2)c(N)s1` [Example 61, 2-Amino-5-[(1E)-hydroxyimino-ethyl]-thiophene-3-sulfonic acid [2-(4-fluorophenyl)-ethyl]-methyl-amide] gave an IC50 of 66.7 nM.

Regarding `CC(C)/C(=N/O)c1cc(S(=O)(=O)N(C)CCc2ccc(F)cc2)c(N)s1` [Example 63, 2-Amino-5-[(1Z)-hydroxyimino-2-methylpropyl]thiophene-3-sulfonic acid[2-(4-fluorophenyl)ethyl]-methyl-amide], the IC50 was 40 nM.
